Data reported in article PMC12461739, “Multi-targeted azacoumarin–cyanocinnamate hybrids induce G2/M arrest and apoptosis via tubulin, and COX-2/VEGFR modulation: insights from in vitro mechanistic basis and in vivo validation” (RSC Medicinal Chemistry, 2025).
Values joined by “and” are separate entries in the source; they are usually repeats but may differ in a detail not shown here. Equal values may be shown once. Read-outs that look alike come from different tables or passages of the source.

Key:
[1] = test system: MDA-MB 231 cells; test: MTT antiproliferative assay, MDA-MB 231; assay type: cell-based, human; settings: Homo sapiens, MDA-MB-231, 48 h, MTT, 48 h treatment; read-out: IC50, antiproliferative activity toward MDA-MB 231
Description: (§1) The cytotoxic effects of the synthesized compounds were evaluated using the MTT assay. MCF-7, MDA-MB 231 (human breast cancer), and MCF-10A (non-tumorigenic breast epithelial) cells were seeded (1–3 × 10^4 cells per well) and incubated for 24 hours at 37 °C in a humidified atmosphere containing 5% CO2.[74] Following incubation, cells were treated with serial dilutions of the test compounds prepared in DMSO. The final concentration of DMSO in all wells, including controls, was maintained below 0.5% v/v to avoid solvent-related cytotoxicity. Doxorubicin was used as a positive control for comparison of antiproliferative activity. Following 48 hours of treatment, the culture medium was gently removed, and each well received 20 μL of MTT reagent (5 mg mL^−1 in phosphate-buffered saline). The plates were incubated at 37 °C for 4 hours to facilitate the enzymatic reduction of MTT into formazan by metabolically active cells. After incubation, the solution was discarded, and 100 μL of dimethyl sulfoxide was added. The absorbance of each well was measured at 570 nm using a microplate spectrophotometer. Cell viability was determined by comparing absorbance values to those of the untreated controls and expressed as a percentage. GraphPad Prism software was used to plot dose–response curves and calculate IC50 values.

[2] = test system: MCF-10A cells; test: MTT cytotoxicity assay, MCF-10A; assay type: cell-based, human
Description: as §1, with “MCF-7, MDA-MB 231 (human breast cancer), and MCF-10A (non-tumorigenic breast epithelial) cells were seeded (1–3 × 10^4 cells per well) and incubated for 24 hours at 37 °C in a humidified atmosphere containing 5% CO2.[74]” left out

[3] = MTT cytotoxicity assay, MCF-10A; assay type: cell-based, human; settings: human, MCF-10A non-tumorigenic breast epithelial cells, MTT, 48 h treatment, non-tumorigenic breast epithelial cells; read-out: IC50, cytotoxicity toward MCF-10A
Description: as §1, with “MCF-7, MDA-MB 231 (human breast cancer), and MCF-10A (non-tumorigenic breast epithelial) cells were seeded (1–3 × 10^4 cells per well) and incubated for 24 hours at 37 °C in a humidified atmosphere containing 5% CO2.[74]” left out

[4] = molecular target: T1, COX-1 (Ovis aries, UniProt P05979); test: COX-1 inhibitor screening (fluorometric); assay type: biochemical; settings: read-out: IC50 toward COX-1
T1 construct: purchased BioVision K548-100
T1 sequence (P05979 25-600): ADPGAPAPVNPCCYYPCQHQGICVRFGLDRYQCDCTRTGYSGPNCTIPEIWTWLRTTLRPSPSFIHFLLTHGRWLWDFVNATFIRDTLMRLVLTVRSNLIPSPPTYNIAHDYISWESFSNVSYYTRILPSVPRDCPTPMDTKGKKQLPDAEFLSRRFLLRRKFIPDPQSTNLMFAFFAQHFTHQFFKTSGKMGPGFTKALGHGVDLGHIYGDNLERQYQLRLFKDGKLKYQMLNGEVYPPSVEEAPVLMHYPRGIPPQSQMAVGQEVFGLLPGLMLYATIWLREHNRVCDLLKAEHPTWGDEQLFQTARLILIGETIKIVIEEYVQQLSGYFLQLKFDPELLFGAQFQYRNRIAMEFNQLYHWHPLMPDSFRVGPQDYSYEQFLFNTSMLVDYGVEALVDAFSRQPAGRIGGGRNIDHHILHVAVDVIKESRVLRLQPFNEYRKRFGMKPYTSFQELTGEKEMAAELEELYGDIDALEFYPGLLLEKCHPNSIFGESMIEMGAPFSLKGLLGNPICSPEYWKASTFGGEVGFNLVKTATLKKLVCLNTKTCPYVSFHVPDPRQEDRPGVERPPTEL
Description: COX-1 and COX-2 enzymes were reconstituted in sterile water (110 μL) and kept on ice until use. Arachidonic acid was activated by mixing 5 μL with 5 μL of NaOH, followed by a 10-fold dilution with water and vortexing. A reaction mixture (80 μL per well) was prepared by combining 76 μL of assay buffer, 1 μL of COX probe, 2 μL of 200-fold diluted COX cofactor, and 1 μL of COX-1 or COX-2 enzyme. This mix was added to each well, followed by 10 μL of the prepared arachidonic acid/NaOH solution to initiate the reaction. Fluorescence was recorded at 25 °C using a microplate reader. The percent inhibition was determined by comparing the fluorescence increase in treated wells relative to the enzyme control. IC50 values were calculated from the concentration–response curves using GraphPad Prism.

[5] = test system: MCF-7 cells; test: Annexin V-FITC/PI apoptosis assay; assay type: cell-based, human; settings: MCF-7, IC50 concentration, 24 h
Description: Apoptotic cell death was quantified using annexin V-FITC and propidium iodide (PI) staining, in accordance with the manufacturer's instructions (BioVision, USA; Cat No. K101-25), with minor protocol adjustments. MCF-7 cells were plated at a density of 2 × 10^5 cells per well in DMEM-containing supplements and incubated overnight at 37 °C in a humidified atmosphere with 5% CO2. […] After treatment, cells were harvested using 0.25% trypsin–EDTA, rinsed twice with ice-cold phosphate-buffered saline (PBS), and resuspended in 500 μL of annexin V binding buffer. To each sample, 5 μL of annexin V-FITC and 5 μL of propidium iodide (PI) were then added for staining. The staining mixture was incubated in the dark for 15 minutes at room temperature. Samples were analyzed on a BD FACSCalibur™ flow cytometer (BD Biosciences, USA). Fluorescence was detected using the FL1 channel (530 nm) for annexin V-FITC and the FL2 channel (585 nm) for PI. Quadrant gating was used to distinguish between viable cells (annexin V^−/PI^−), early apoptotic cells (annexin V^+/PI^−), late apoptotic cells (annexin V^+/PI^+), and necrotic cells (annexin V^−/PI^+).

[6] = test system: MCF-7 cells; test: MTT antiproliferative assay, MCF-7; assay type: cell-based, human; settings: MTT, 48 h treatment, read-out: IC50, antiproliferative activity toward MCF-7
Description: as §1

[7] = Kidney histopathology (H&E); settings: compound 7 + EAC
Description: Additionally, liver and kidney tissues were excised from each animal for further evaluation. […] The second portion was fixed in 10% neutral buffered formalin for histopathological examination to assess tissue morphology and damage.[96,97]
Liver and kidney tissues were collected from all experimental groups at the end of the study and immediately fixed in 10% neutral buffered formalin. After fixation, the samples were dehydrated, embedded in paraffin, and sectioned at a thickness of 5 μm using a rotary microtome. […] Histopathological examination of renal tissue focused on identifying acute tubular injury (ATI), characterized by tubular epithelial cell flattening, necrosis, apical vacuolization, and loss of the brush border. These features were assessed using a semi-quantitative scoring system.[110] Hepatic tissue sections were evaluated for the severity of hepatocellular injury using a modified Brunt grading system, which includes assessment of hepatocyte ballooning, necrosis, inflammation, and other degenerative changes.

CCOC(=O)/C(C#N)=C/c1ccc(Oc2c(C)c3cc(Br)c(O)c(Br)c3[nH]c2=O)cc1 [Compound 7, ethyl (E)-2-cyano-3-(4-((6,8-dibromo-7-hydroxy-4-methyl-2-oxo-1,2-dihydroquinolin-3-yl)oxy)phenyl)acrylate]
IC50 [1]: 9.7 ± 1.15 µM | selectivity index toward breast cancer cells ([2]; MCF-10A vs MCF-7 / MDA-MB 231): 5.3 to 6.8 | IC50 ([2]; MTT, 48 h treatment, non-tumorigenic breast epithelial cells, read-out: IC50, cytotoxicity toward MCF-10A): 52.1 ± 1.76 µM | IC50 at 48 h [3]: 52 µM | IC50 [4]: 7.49 µM and 7.5 µM | late apoptotic cells ([5]; control 0.12%): 8.41% | early apoptotic cells ([5]; control 0.37%): 15.36% | necrotic cell population ([5]; control 2.22%): 3.57% | IC50 ([6]; Homo sapiens, MCF7, 48 h): 7.65 µM | IC50 [6]: 7.65 µM and 7.6 µM | nephropathy class [7]: class II | glomerular involvement ([7]; EAC group approximately 25%): 15%
